PubChem BioAssay (NCI)
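A five-concentration, 48-hour dose response in 96-well plates underlies each endpoint, interpolated linearly between surrounding concentrations. At the GI50, growth is halved. TGI: total growth inhibition.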

How the values were obtained:
Test in all cases: growth of human tumour cells (NCI), 48 h
[1] = test system: K-562 leukemia
[2] = test system: SNB-19 CNS
[3] = test system: HL-60(TB) leukemia
[4] = test system: RPMI-8226 leukemia
[5] = test system: TK-10 renal
[6] = test system: SF-268 CNS
[7] = test system: SR leukemia
[8] = test system: OVCAR-5 ovarian
[9] = test system: CCRF-CEM leukemia
[10] = test system: A549 NSCLC

Compound	TGI [1] [µM]	TGI [2] [µM]	TGI [3] [µM]	TGI [4] [µM]	TGI [5] [µM]	TGI [6] [µM]	TGI [7] [µM]	TGI [8] [µM]	TGI [9] [µM]	TGI [10] [µM]	GI50 [1] [µM]	GI50 [2] [µM]	GI50 [3] [µM]	GI50 [4] [µM]	GI50 [5] [µM]	GI50 [6] [µM]	GI50 [7] [µM]	GI50 [8] [µM]	GI50 [9] [µM]	GI50 [10] [µM]
Clc1ccc(CN2COc3c(cc(Cl)c4cccnc34)C2)cc1	3.74	16	2.11	3.42	13.4	12.7	6.88	8.11	4.94	6.12										
CCSc1nc(COC(=O)NC)c(COC(=O)NC)n1C	> 68.1	> 100	> 100	> 100	> 100	> 100	> 100	> 100	> 100	> 100										
COc1ccc2c(c1)nc(N)c1c3cccnc3cn21	24.9	> 100	18.3	34.2	19.9	76.9	22.4	> 100	> 100	16.6	0.038	0.212	0.0313	0.0546	0.252	0.0917	0.0339	0.438	0.039	0.0565
COC(=O)C(Cc1nc2ccc(Cl)cc2[nH]c1=O)C(=O)C(=O)Nc1ccccc1[N+](=O)[O-] (stereo not given)	> 100	> 100	> 100	> 100	> 100	> 100	> 100	> 100	> 100	> 100										
C=C[C@]1(C)C=C2C(=O)[C@@]3(O)OC[C@@]4(CCCC(C)(C)C43O)C2(O)C(O)C1 (stereo not given in full)	> 27.9	> 69	13	> 100	3.03	23.9	24.9	25.9	16.5	30.8	2.8	23.3	3.41	21	1.56	11.3	1.97	12.1	1.83	14.5
Cc1cc(N2CCCC2)nc(N(CCCNc2ccnc3cc(Cl)ccc23)Cc2ccc3c(c2)OCO3)n1	1.86	12.7	1.36	1.72	6.81	16.6	0.431	8.92	4.03	12.5	0.218	2.45	0.402	0.322	2.25	2.89	0.152	2.46	0.398	2.74
CCOC(=O)c1c(C)n(Cc2ccc(Cl)cc2Cl)c2c1cc1oc(=O)c(=O)n3c(Cc4ccccc4)nc2c13	7.18	20.9	6.09	3.57	6.95	5.84	2.38	6.16	3.19	13.5	3.13	6.12	2.09	1.71	2.64	2.31	0.378	2.73	1.31	3.64
O=C(NN1C(=O)CSC1c1ccc(Cl)cc1)c1[nH]c2ccc(F)cc2c1-c1ccccc1 (stereo not given)	9.51	15.5	7.71	6.24	5.52	7.19	6.27	8.34	5.85	15.6	2.43	3.79	2.75	2.13	2.31	2.51	2.27	2.64	2.17	3.58
Cn1cc(-c2ccc3c(c2)CCN3C(=O)Cc2cccc(C(F)(F)F)c2)c2c(N)ncnc21	20.6	22.9	33	27.7	39	26.5	23.4	30.2	> 100	25.5	2.22	7.06	5.39	3.84	6.09	9	2.38	12.2	3.94	7.61
Cn1cc(-c2ccc(CNc3cc(-c4cnc5cc(OCCCN6CCCC6)ccn45)ncn3)cc2)cn1	> 100	8.43	6.94	5.55	39.1	4.19	7.12	4.16	> 100	3.49	2.62	2.5	2.31	2.15	23.7	1.9	2.17	2.04	2.72	1.73
Cc1cccc(C(C)(C)C)c1NC(=O)C(=O)C(c1cnc2ccccc2n1)[N+](=O)[O-] (stereo not given)	> 100	> 100	> 100	> 100	> 100	> 100	> 100	> 100	> 100	> 100										
CCCCC[C@H]1C/C=C2/C(=O)C(Cl)=C[C@@H]2C/C=C\CCCC(=O)O[C@@H](CCCCC)C/C=C2/C(=O)C(Cl)=C[C@@H]2C/C=C\CCCC(=O)O1	2.29	2.24	1.27	0.973	1.6	1.68	1.35	2.94	1.76	1.15	0.314	0.549	0.429	0.188	0.508	0.479	0.159	0.689	0.145	0.426
